The record followed here is ChEMBL document CHEMBL2440095, “Synthesis and activity of novel tetrazole compounds and their pyrazole-4-carbonitrile precursors against Leishmania spp” (Bioorg Med Chem Lett, 2013).

The nature of data set [1]: Cytotoxicity against mouse RAW264.7 cells after 24 hrs by MTT assay. Type of data set: cell-based. (In general: Formazan colour is commonly taken as a measure of viable cells.)
The test system of the next data set is Leishmania amazonensis. In words: Antipromastigote activity against Leishmania amazonensis MHOM/BR/77/LTB0016 after 24 hrs by MTT assay. Type of data set: functional, organism-based. The conditions noted are these: MHOM/BR/77/LTB0016, 24 h.
The test system of a further data set is Leishmania braziliensis. In words: Antipromastigote activity against Leishmania braziliensis MCAN/BR/98/R619 after 24 hrs by MTT assay. It is filed as functional, organism-based. The conditions noted are these: MCAN/BR/98/R619, 24 h.

pIC50: −log10 of the molar value.

In the case of `N=C(N)c1ccc(OCCCCCOc2ccc(C(=N)N)cc2)cc1` [PENTAMIDINE], half-maximal cytotoxicity in data set [1] (CC50 at 24 h) was put at 25.5 µM. For the same molecule, the values for the negative-log IC50 (pIC50) in the data set on Leishmania amazonensis and in the data set on Leishmania braziliensis were 5.47 and 4.89, respectively.

One may read the CC50 as the concentration at which the toxic effect on the cells reaches its halfway point. A lower CC50 goes with harm at low concentration. Usually pIC50 stands for −log10 of the IC50, conventionally taken in molar units. A high value points to a small IC50.
